Reference: ChEMBL document CHEMBL5331050, “Spiro[benzoxazine-piperidin]-one derivatives as chitin synthase inhibitors and antifungal agents: Design, synthesis and biological evaluation” (Eur J Med Chem, 2022)
≈ marks a conversion by molar mass, not a printed value.

Key:
[1] = Inhibition of chitin synthase (unknown origin); set-up: species or system Fungi
[2] = tested on: Aspergillus flavus; test: Antifungal activity against Aspergillus flavus ATCC 16870 assessed as fungal growth inhibition incubated for 24 hrs by CLSI protocol based broth microdilution method; format: functional
[3] = tested on: Candida albicans; test: Antifungal activity against fluconazole-resistant Candida albicans ATCC 76615R assessed as fungal growth inhibition; format: functional
[4] = tested on: Candida albicans; test: Antifungal activity against micafungin-resistant Candida albicans ATCC 76615R assessed as fungal growth inhibition; format: functional
[5] = tested on: Candida albicans; test: Antifungal activity against Candida albicans ATCC 76615 assessed as fungal growth inhibition incubated for 24 hrs by CLSI protocol based broth microdilution method; format: functional
[6] = tested on: Cryptococcus neoformans; test: Antifungal activity against fluconazole-resistant Cryptococcus neoformans ATCC 208821R assessed as fungal growth inhibition; format: functional
[7] = tested on: Aspergillus fumigatus; test: Antifungal activity against Aspergillus fumigatus GIMCC 3.19 assessed as fungal growth inhibition incubated for 24 hrs by CLSI protocol based broth microdilution method; format: functional
[8] = Selectivity ratio of MIC for antifungal activity against Candida albicans ATCC 76615 assessed as disruption of fungal wall by measuring fungal growth incubated for 24 hrs in the presence of sorbitol to MIC for antifungal activity against Candida albicans ATCC 76615 assessed as fungal growth inhibition; format: functional
[9] = tested on: Candida tropicalis; test: Inhibition of Candida tropicalis ATCC 750 chitin synthase using UDP-GlcNAc as substrate at 300 ug/ml incubated for 1 hrs by absorbance based assay relative to control; settings: dose 300.0 µg/ml
[10] = tested on: Cryptococcus neoformans; test: Antifungal activity against Cryptococcus neoformans ATCC 208821 assessed as disruption of fungal wall by measuring fungal growth incubated for 24 hrs in the presence of sorbitol; format: functional
[11] = tested on: Candida albicans; test: Antifungal activity against Candida albicans ATCC 76615 assessed as disruption of fungal wall by measuring fungal growth incubated for 24 hrs in the presence of sorbitol; format: functional
[12] = tested on: Cryptococcus neoformans; test: Antifungal activity against Cryptococcus neoformans ATCC 208821 assessed as fungal growth inhibition incubated for 24 hrs by CLSI protocol based broth microdilution method; format: functional
[13] = Inhibition of Candida tropicalis ATCC 750 chitin synthase using UDP-GlcNAc as substrate incubated for 1 hrs by absorbance based assay

| SMILES | IC50 [1] [µM] | MIC [2] [µg/mL] | MIC [3] [µg/mL] | MIC [4] [µg/mL] | MIC [5] [µg/mL] | MIC [6] [µg/mL] | MIC [7] [µg/mL] | Ratio [8] | inhibition [9] [%] | MIC [10] [µg/mL] | MIC [11] [µg/mL] | MIC [12] [µg/mL] | IC50 [13] [µM] |
| --- | --- | --- | --- | --- | --- | --- | --- | --- | --- | --- | --- | --- | --- |
| Cc1cccc(NC(=O)/C=C/C(=O)NC2Cc3ccccc3NC2=O)c1 (stereo not drawn) | 90 | – | – | – | – | – | – | – | – | – | – | – | – |
| COc1cc(Br)c(NC(=O)/C=C/C(=O)N2CCC3(CC2)OC(=O)Nc2ccc(OC)cc23)c(Br)c1 | – | 256 (≈ 420 µM) | 64 (≈ 105 µM) | 64 (≈ 105 µM) | 64 (≈ 105 µM) | 64 (≈ 105 µM) | 128 (≈ 210 µM) | 8 | 72 | 512 | 512 | 64 (≈ 105 µM) | 110 |
